Results on 14 compounds are retold here after ChEMBL document CHEMBL1201862, “PubChem BioAssay data set” (2004).

SMILES strings stand for the structures.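 Assay format: 96-well plates, 48-hour exposure. GI50 marks 50% less growth.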 Calls of active or inactive are those of the source. No stated cut-off is given here; in the data, active = GI50 up to about 1.1 µM and inactive = higher.

Common to all, as to assay: NCI tumour cell line growth inhibition, 48 h
For assay [1], the system named is SK-MEL-5.
For assay [2], the system named is SF-539.
Assay [3] deals with 786-0.
Assay [4] has as its system SK-MEL-28.
Assay [5] deals with KM12.
For assay [6], the system named is MOLT-4.
Assay [7] has as its system A498.
The subject of assay [8] is SK-MEL-2.
Assay [9] deals with UACC-257.
Assay [10] has as its system OVCAR-3.
For assay [11], the system named is OVCAR-4.
The test system of assay [12] is EKVX.
Assay [13] deals with RPMI-8226.
Assay [14] relates to SN12C.
Assay [15] has as its system HCT-116.
In assay [16] the test system is LOX IMVI.

Consider `O=C(C/C(=N\NC(=O)C[n+]1ccccc1)C(=O)Nc1nc2ccc([N+](=O)[O-])cc2s1)CC(c1ccccc1)c1c(O)c2ccccc2oc1=O` (stereo not drawn), for which the GI50 in assay [1], in [2], in assay [3], in [4], in [5] and in assay [6] was > 100 µM (inactive) each time. Also, the GI50 in [7] was 46.3 µM (inactive); in assay [8] it was > 100 µM (inactive); in [9] it was > 100 µM (inactive); in [10] it was > 100 µM (inactive); in [11] it was > 100 µM (inactive); in assay [12], > 100 µM (inactive). Besides, the GI50 in [13], in assay [14] and in [15] was > 100 µM (inactive) each time.

As for `COC(=O)C1=Cc2cc3c(cc2[C@H](c2ccc4c(c2)OCO4)C1C(=O)OC)OCO3` (stereo partly drawn), the GI50 is 46.6 µM (inactive) in assay [1]; > 100 µM (inactive) in assay [2]; > 100 µM (inactive) in [3]; > 100 µM (inactive) in assay [4]; 67.1 µM (inactive) in assay [5]; 35.6 µM (inactive) in [6]. Moreover, the GI50 in assay [16] is > 100 µM (inactive); in [7], 0.0745 µM (active); in [9], > 100 µM (inactive); in assay [10], 44.9 µM (inactive); in [11], 61.9 µM (inactive); in [12] it was 46.8 µM (inactive). Besides, the GI50 in [13] is > 100 µM (inactive); in assay [14], > 100 µM (inactive); in assay [15], 41.7 µM (inactive).

Regarding `c1ccc(CSc2nc3ccccc3nc2-c2cccs2)cc1`, the GI50 in [1], in assay [2], in assay [3], in assay [4], in assay [5] and in assay [6] was > 100 µM (inactive) throughout. The GI50 in assay [8], in assay [9], in assay [10], in [11], in assay [12] and in [13] was > 100 µM (inactive) throughout. In addition, the GI50 in [14] and in [15] was > 100 µM (inactive) each time.

`CC(Oc1ccc(OCC2CCCCC2)cc1)C(N)=O` (stereo not drawn): the GI50 in [1], in assay [2], in assay [3], in assay [4], in [5] and in assay [6] was > 100 µM (inactive) throughout. The GI50 in [16] is > 100 µM (inactive); in assay [8], > 100 µM (inactive); in assay [9], 72.3 µM (inactive); in assay [10], > 100 µM (inactive); in assay [11], > 100 µM (inactive); in [14], > 100 µM (inactive). Also, in [15], the GI50 was > 100 µM (inactive).

In the case of `CCOC(=O)C(Cc1c(C=O)[nH]c2ccccc12)(NC(=O)c1ccccc1)C(=O)OCC`, the GI50 was 11.4 µM (inactive) in assay [1]; 16.3 µM (inactive) in [2]; 16.7 µM (inactive) in assay [3]; 16.9 µM (inactive) in assay [4]; 10.3 µM (inactive) in assay [5]; 6.65 µM (inactive) in assay [6]. The GI50 is 16.5 µM (inactive) in [8]; 16.9 µM (inactive) in assay [9]; 13 µM (inactive) in assay [10]; 18.5 µM (inactive) in assay [12]; > 100 µM (inactive) in assay [13]; 13.2 µM (inactive) in [14].

In the case of `Cc1nc(=O)n2c(C)n[nH]c2c1C(=O)O`, the GI50 was 10 µM (inactive) in [1]; > 100 µM (inactive) in assay [2]; > 100 µM (inactive) in assay [3]; > 100 µM (inactive) in [4]; > 100 µM (inactive) in assay [5]; > 100 µM (inactive) in [6]. Also, the GI50 in assay [16], in [8], in [10], in assay [11], in assay [12] and in assay [13] was > 100 µM (inactive) each time. Further, the GI50 in [14] and in assay [15] was > 100 µM (inactive) in each case.

Turning to `Cc1ccc(C(=O)CC2(O)C(=O)Nc3c(C)cc(Cl)cc32)cc1` (stereo not drawn), the GI50 was > 100 µM (inactive) in assay [1]; > 100 µM (inactive) in [3]; > 100 µM (inactive) in assay [4]; > 100 µM (inactive) in [5]; 59.4 µM (inactive) in assay [6]; > 100 µM (inactive) in assay [16]. The GI50 in assay [8] is > 100 µM (inactive); in [9] it was > 100 µM (inactive); in [10] it was > 100 µM (inactive); in [11], 35.7 µM (inactive); in assay [12] it was > 100 µM (inactive); in assay [13], 43.2 µM (inactive). Further, the GI50 in assay [14] is > 100 µM (inactive).

As to `CCOC(=O)C(c1ccsc1)P(=O)(OCC)OCC` (stereo not drawn), the GI50 in [1] is 15.7 µM (inactive); in assay [2], 14.2 µM (inactive); in [3] it was 16.3 µM (inactive); in assay [4], 15.1 µM (inactive); in [5], 13.4 µM (inactive); in assay [6], > 100 µM (inactive). Further, the GI50 in assay [16] was 6.5 µM (inactive); in [8], 20 µM (inactive); in assay [9], 15.4 µM (inactive); in assay [10], 13.7 µM (inactive); in [11], 28.7 µM (inactive); in assay [12], 23.9 µM (inactive). In addition, the values for the GI50 in assay [13], in [14] and in [15] were 9.4 µM (inactive), 13.3 µM (inactive) and 11.5 µM (inactive), respectively.

In the case of `CC1(C)CC(=O)C(/C(=N/NC(=S)NN)C(=O)Nc2nc3ccc([N+](=O)[O-])cc3s2)C(=O)C1`, the GI50 is > 100 µM (inactive) in assay [1]; > 100 µM (inactive) in assay [2]; > 100 µM (inactive) in [3]; > 100 µM (inactive) in assay [4]; > 100 µM (inactive) in assay [5]; 55.1 µM (inactive) in [6]. The GI50 is > 100 µM (inactive) in assay [16]; > 100 µM (inactive) in assay [7]; > 100 µM (inactive) in assay [8]; > 100 µM (inactive) in [9]; 67.9 µM (inactive) in assay [10]; > 100 µM (inactive) in assay [11]. Moreover, the GI50 in [12], in assay [14] and in assay [15] was > 100 µM (inactive) in each case.

`CN(C)CCCn1cnc2ncccc2c1=O`: the GI50 in [1], in assay [2], in assay [3], in [4], in assay [5] and in assay [6] was > 100 µM (inactive) throughout. The GI50 in assay [16], in assay [8], in [10], in [11], in assay [12] and in assay [14] was > 100 µM (inactive) throughout. Further, the GI50 in assay [15] is > 100 µM (inactive).

Consider `O=C(Cc1nc2ccccc2o1)C(=O)Nc1cccc(Cl)c1`, for which the GI50 in assay [2], in assay [3], in [4], in assay [5], in [6] and in assay [7] was > 100 µM (inactive) in each case. The GI50 in assay [8], in assay [9], in [10], in [11], in assay [12] and in [14] was > 100 µM (inactive) throughout. Further, the GI50 in assay [15] was > 100 µM (inactive).

As for `COc1ccc(/C=C2\N=C(c3ccccc3)OC2=O)c(OCc2ccccc2)c1`, the GI50 in assay [1] is 19.8 µM (inactive); in assay [2], 24 µM (inactive); in assay [3], 20.1 µM (inactive); in assay [4], > 100 µM (inactive); in assay [5], 33 µM (inactive); in assay [6], 14.1 µM (inactive). For the same compound, the GI50 is 39.3 µM (inactive) in [16]; 16.3 µM (inactive) in assay [7]; > 10 µM (inactive) in assay [9]; 19 µM (inactive) in [10]; 22.1 µM (inactive) in assay [11]; > 100 µM (inactive) in [12]. The values for the GI50 in [13], in [14] and in [15] were 15.8 µM (inactive), > 100 µM (inactive) and 49.3 µM (inactive), respectively.

Take `O=C1CCC(=O)C12CCc1ccccc12`: the GI50 in [3], in assay [4], in assay [16], in assay [10], in assay [11] and in [12] was > 100 µM (inactive) in each case. The GI50 in [14] is > 100 µM (inactive).

With `Cc1ccccc1NC(=O)c1cc(-c2ccc([N+](=O)[O-])cc2)nc(S)n1`, the GI50 in assay [1], in [2], in [3], in assay [4], in assay [5] and in assay [6] was > 100 µM (inactive) throughout. The GI50 in [16], in assay [8], in assay [9], in [10], in assay [11] and in assay [12] was > 100 µM (inactive) each time. Moreover, the GI50 in assay [14] and in assay [15] was > 100 µM (inactive) throughout.
